One data set relates to rat NOP models. The experiment in a line: Rat eye-wipe assay, Epi-off ocular pain model, 2M NaCl challenge. In kind it is in vivo. The text has this:
With minor modification of established rat NOP models, ocular pain was created by removing corneal epithelium (Epi-off) under general anesthesia. 2M NaCl saline (in contrast to 5M NaCl used in previous studies) was used to trigger peripheral neuronal excitement in response to hyperosmolarity while minimizing the potential inherent irritancy to the cornea from 5M NaCl. Then, one hour was given to each rat to allow complete recovery from anesthesia before proceeding to subsequent study steps. […] Due to its short duration of action, a proparacaine group was not included in this study (FIG. 2). The rat eye-wipe assay is an established animal behavioral and neurophysiological tool for the assessment of corneal sensitivity to noxious stimuli (Price T J, et al., Br. J. Pharmacol.). Increased corneal sensitivity was shown in male rats following lacrimal gland excision which correlates with eye wiping behaviors in response to hypertonic saline (5M NaCl) (Meng I D, et al., Invest. Ophthalmol. Vis. Sci. 2015).

The target in another data set is Nav1.8 nociceptor (Homo sapiens, UniProt Q9Y5Y9). Particulars: versus lidocaine; cited from earlier work.
Sequence of Nav1.8 nociceptor (Q9Y5Y9 whole entry): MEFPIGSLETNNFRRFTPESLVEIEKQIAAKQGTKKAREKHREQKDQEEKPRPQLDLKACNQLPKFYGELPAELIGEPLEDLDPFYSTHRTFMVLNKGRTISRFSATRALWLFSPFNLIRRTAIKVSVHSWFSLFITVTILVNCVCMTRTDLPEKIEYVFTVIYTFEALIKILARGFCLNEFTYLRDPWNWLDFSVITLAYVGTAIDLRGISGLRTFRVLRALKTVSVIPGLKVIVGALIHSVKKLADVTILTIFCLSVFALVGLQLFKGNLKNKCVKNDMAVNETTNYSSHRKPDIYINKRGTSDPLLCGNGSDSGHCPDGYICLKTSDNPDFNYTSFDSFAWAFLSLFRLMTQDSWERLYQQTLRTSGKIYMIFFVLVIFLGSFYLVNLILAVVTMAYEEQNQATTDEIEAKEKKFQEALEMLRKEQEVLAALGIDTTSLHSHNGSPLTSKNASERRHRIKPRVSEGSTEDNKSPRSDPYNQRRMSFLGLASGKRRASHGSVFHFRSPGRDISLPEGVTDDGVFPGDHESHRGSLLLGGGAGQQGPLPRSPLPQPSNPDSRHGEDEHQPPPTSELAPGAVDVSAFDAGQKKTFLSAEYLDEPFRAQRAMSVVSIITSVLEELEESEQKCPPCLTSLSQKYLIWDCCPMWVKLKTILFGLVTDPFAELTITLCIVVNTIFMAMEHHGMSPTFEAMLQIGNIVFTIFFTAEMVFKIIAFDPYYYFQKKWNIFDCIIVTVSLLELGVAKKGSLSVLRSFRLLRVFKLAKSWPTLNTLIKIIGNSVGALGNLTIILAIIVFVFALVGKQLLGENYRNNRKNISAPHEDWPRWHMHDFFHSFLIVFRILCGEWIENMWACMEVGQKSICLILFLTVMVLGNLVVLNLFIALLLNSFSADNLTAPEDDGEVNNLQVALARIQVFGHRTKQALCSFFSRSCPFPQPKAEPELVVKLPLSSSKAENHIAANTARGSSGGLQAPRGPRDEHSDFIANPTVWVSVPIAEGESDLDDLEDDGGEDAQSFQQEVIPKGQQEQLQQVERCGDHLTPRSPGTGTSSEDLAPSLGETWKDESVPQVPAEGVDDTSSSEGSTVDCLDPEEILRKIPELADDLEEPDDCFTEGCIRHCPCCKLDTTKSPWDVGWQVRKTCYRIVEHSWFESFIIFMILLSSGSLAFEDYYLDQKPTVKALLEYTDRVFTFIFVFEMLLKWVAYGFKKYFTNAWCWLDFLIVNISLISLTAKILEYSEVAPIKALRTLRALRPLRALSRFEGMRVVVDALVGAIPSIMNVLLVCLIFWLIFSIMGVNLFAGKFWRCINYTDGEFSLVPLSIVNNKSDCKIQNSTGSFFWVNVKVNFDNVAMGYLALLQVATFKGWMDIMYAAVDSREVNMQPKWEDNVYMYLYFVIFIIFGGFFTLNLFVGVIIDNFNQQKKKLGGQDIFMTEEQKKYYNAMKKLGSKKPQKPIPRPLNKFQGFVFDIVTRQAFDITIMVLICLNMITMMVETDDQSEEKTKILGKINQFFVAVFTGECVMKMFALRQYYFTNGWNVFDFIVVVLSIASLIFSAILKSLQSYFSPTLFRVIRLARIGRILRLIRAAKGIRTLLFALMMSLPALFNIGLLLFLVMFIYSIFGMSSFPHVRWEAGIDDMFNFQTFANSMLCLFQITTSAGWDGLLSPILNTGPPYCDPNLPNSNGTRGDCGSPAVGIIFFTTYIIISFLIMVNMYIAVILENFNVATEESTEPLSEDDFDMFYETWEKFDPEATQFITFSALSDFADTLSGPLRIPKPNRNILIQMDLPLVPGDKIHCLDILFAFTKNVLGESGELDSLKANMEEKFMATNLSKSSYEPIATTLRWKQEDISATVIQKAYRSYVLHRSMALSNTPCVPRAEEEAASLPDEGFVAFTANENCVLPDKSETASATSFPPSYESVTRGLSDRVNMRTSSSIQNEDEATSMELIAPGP
For another data set, the target named is Nav1.7 nociceptor (Homo sapiens, UniProt Q15858). Particulars: versus lidocaine; cited from earlier work.
Sequence of Nav1.7 nociceptor (Q15858 whole entry): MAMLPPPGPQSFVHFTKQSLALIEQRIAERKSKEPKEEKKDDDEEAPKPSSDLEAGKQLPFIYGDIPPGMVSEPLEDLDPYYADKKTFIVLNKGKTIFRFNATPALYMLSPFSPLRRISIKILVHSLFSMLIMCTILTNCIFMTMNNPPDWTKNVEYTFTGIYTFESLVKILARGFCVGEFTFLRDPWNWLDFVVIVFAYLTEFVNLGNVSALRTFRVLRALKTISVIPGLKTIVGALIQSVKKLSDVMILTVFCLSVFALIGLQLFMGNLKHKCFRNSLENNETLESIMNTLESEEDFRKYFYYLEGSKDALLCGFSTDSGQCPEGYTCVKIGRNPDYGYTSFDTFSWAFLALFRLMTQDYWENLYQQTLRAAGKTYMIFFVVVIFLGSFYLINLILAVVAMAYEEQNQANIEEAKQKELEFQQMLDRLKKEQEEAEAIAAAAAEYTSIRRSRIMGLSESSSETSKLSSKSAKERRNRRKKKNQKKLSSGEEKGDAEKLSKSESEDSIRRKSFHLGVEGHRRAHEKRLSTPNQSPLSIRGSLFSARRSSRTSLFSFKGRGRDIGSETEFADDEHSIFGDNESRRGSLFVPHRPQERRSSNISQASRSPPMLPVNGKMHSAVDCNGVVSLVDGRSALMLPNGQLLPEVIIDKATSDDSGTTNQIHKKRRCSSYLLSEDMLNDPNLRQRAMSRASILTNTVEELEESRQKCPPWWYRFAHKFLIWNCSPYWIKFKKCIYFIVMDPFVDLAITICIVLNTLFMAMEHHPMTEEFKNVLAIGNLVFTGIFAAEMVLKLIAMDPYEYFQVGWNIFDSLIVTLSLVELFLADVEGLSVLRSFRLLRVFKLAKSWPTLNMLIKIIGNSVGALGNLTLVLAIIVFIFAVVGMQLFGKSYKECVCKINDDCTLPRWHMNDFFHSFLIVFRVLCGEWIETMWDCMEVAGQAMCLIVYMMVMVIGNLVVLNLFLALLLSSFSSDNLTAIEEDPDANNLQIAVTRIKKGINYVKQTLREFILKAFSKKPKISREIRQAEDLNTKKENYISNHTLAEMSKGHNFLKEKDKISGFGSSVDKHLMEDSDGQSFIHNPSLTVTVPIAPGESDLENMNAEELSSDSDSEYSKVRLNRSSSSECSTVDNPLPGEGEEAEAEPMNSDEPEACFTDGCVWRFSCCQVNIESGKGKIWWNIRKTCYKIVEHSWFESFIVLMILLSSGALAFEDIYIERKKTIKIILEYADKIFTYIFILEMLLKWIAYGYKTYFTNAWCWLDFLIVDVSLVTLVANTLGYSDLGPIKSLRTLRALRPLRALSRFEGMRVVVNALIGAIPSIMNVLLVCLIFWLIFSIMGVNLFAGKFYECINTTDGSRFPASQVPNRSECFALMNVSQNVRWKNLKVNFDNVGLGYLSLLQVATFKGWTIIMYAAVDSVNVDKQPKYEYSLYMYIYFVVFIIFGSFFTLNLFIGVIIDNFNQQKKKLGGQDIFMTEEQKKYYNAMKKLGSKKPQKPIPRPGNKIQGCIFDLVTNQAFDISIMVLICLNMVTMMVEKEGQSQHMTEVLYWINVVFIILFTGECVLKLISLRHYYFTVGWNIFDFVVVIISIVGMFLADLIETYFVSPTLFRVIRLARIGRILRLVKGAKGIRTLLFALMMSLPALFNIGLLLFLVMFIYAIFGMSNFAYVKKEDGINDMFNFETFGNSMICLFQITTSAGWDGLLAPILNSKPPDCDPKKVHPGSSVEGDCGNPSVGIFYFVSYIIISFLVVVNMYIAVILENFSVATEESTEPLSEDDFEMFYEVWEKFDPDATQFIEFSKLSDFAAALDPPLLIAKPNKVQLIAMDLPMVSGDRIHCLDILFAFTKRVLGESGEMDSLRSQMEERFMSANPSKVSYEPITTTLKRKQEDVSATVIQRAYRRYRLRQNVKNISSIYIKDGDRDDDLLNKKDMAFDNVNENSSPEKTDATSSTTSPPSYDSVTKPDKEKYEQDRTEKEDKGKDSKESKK
The next data set has as its system eyes of rats. As to the kind of experiment: Corneal sensation by Cochet-Bonnet esthesiometer after one topical drop in rats. The conditions noted are these: rat eye; for minimum total corneal sensation preserved: at maximal effect (5-15 minutes), tactile sensation.
The next data set concerns cornea. The conditions noted are these: topical 0.1%, humans; cited from earlier work.
Setting [1] is: single drop 0.5% ambroxol, Epi-off rats, 2M NaCl.
The mark [2] stands for this setting: 0.3% and 0.5% ambroxol HCl solutions.

Consider `Nc1c(Br)cc(Br)cc1CN[C@H]1CC[C@H](O)CC1` [ambroxol, trans-4-(2-Amino-3,5-dibrombenzylamino)-cyclohexanol], for which, in the data set with rat NOP models (0.5% ambroxol-containing formulation, after administration), the “time of maximal effect in eye-wipe assay” value is listed as “up to 30 min”. In the data set on rat NOP models (setting [1]), the “duration of reduction in eye wiping count/min” value is on record as “at least 4 hours” and the “sensitivity to hyperosmolarity at the ocular surface” value is “obviously preserved”. Moreover, the “eye wiping count/min in response to 2M NaCl” value with rat NOP models (single drop 0.5% ambroxol, Epi-off rats, versus carrier buffer control) is listed as “significant reduction”. Besides, at Nav1.8 nociceptor, the “potency in binding the Nav1.8 nociceptor relative to lidocaine” value is 40 times and the “potency of Nav1.8 block relative to lidocaine” value was “approximately 40 times”. For the same molecule, the “binding affinity for the Nav1.7 nociceptor relative to lidocaine” value on Nav1.7 nociceptor is listed as “same level”. Besides, the “minimum total corneal sensation preserved” value with eyes of rats (0.3% ambroxol HCl solution) is listed as at least 15%. Also, in the data set with eyes of rats (setting [2]), the “duration of drug action on corneal sensation” value is on record as “about 4 hours” and the “time of maximal effect on corneal sensation” value was 5 to 15 min. Moreover, in the data set on eyes of rats (0.5% ambroxol HCl solution), the “minimum total corneal sensation preserved” value is listed as at least 15%.
Take `CCCOc1ccc(C(=O)OCCN(CC)CC)cc1N` [proparacaine]: the “change in eye wiping counts before (Epi-on) and after surgery (Epi-off)” value with rat NOP models (0.5% proparacaine HCl, at its maximal effect (5 min), data not shown) is reported as “no significant change”. The “corneal sensor network block (FIG. 1)” value with eyes of rats (0.5% proparacaine) is on record as “completely blocked”.
`O=C(O)Cc1ccccc1Nc1c(Cl)cccc1Cl` [diclofenac]: in the data set on cornea, the cornea anesthetic effect entry is recorded as “does not have clinically significant cornea anesthetic effect”.
